Measured values taken from patent publication US11834430B2, “Compounds useful as inhibitors of isoprenylcysteine carboxyl methyltransferase” (AGENCY FOR SCIENCE, TECHNOLOGY AND RESEARCH, priority 2017, dated 2023).
Values joined by “and” are separate entries in the source; they are usually repeats but may differ in a detail not shown here. Equal entries are not always repeated.

How the values were obtained:
human ICMT = human ICMT (Homo sapiens (Human), UniProt O60725); assay: ICMT biochemical assay (Methyltransferase-Glo)
MIAPaCa-2 cells = assay: Cell proliferation assay (CellTiter-Glo); type: cell-based; conditions: Homo sapiens, MIA PaCa-2, 72 h, 3 days
Procedure: Cell proliferation assay was performed using CellTiter-Glo Luminescent Cell Viability Assay (Promega) following manufacturer's instructions. The MIAPaCa-2 cells (ATCC) were treated with compounds that were serial diluted in the media (DMEM). Plates were incubated for 3 days at 37° C. in 5% CO2. After 3 days, an equal volume of Cell Titer Glo reagent was added. Plates were rocked on a rotator for 2 hours. 100 μL of each well was transferred to a 96-well opaque plate, and luminescence emitted was measured with the Tecan Safire II.

[1] = tested on: Prelamin A in MIAPaCa-2 cells; assay: Prelamin A accumulation assay (Western blot); type: cell-based; conditions: various concentrations, 48 hours
Procedure: The MIAPaCa-2 cells were seeded in 6-well plates. After seeding for 24 hours, the cells were treated with either DMSO or varying concentration of the compound and incubated for 48 hours. The cells were trypsinized and the lysate was extracted with RIPA buffer (Santa Cruz). The total protein concentration of lysate is quantified using the standard Bradford assay (Biorad protein assay, microplate standard assay).
Western blot analysis was performed using antibody against Prelamin A in MIAPaCa cells treated with compound at various concentration for 48 hours. 15.0 μg of cell lysate was run on a SDS-PAGE and then transferred to nitrocellulose membrane. The membrane was then incubated in blocking buffer [PBS (phosphate buffered saline) with 0.1% Tween 20 and 5% dry milk] at room temperature for 1 hour, followed by incubation with Prelamin A antibody (rat monoclonal antibody) at 1:2500 dilution in PBS, 0.1% Tween 20 and 5% dry milk overnight at 4° C., followed by three washes (15 minutes each wash) in PBS, 0.1% Tween 20 on the next day.
The nitrocellulose membrane was then incubated with secondary antibody solution at room temperature for 1 hour, washed three times before developed with enhanced Chemiluminescence (ECL) mixture (Amersham, Aylesbury, United Kingdom), incubated for 5 minutes and exposed using Fluor Chem E System instrument (Protein Simple).

[2] = ICMT membrane extract from Sf-9 cells, 30 min preincubation, 90 min reaction

Chain of human ICMT (O60725 whole entry): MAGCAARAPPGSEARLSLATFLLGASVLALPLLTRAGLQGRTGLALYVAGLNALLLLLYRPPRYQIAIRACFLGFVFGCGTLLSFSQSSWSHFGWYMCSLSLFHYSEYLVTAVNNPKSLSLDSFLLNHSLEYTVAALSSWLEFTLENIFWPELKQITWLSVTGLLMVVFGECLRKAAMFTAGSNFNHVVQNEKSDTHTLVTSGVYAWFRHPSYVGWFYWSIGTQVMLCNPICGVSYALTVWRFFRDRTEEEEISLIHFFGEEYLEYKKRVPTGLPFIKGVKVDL

Row | IC50 (human ICMT; [2]) | GI50 (MIAPaCa-2 cells) [nM] | IC50 (human ICMT; unit printed in cell (pM)) [pM] | SMILES | Prelamin A accumulation (Western blot) [1]
1 | 440 pM | 2200 |  | Cc1nccn1-c1cc(OCCOc2ccc(C#N)cc2F)ccn1 [Compound 53, 3-fluoro-4-(2-((2-(2-methyl-1H-imidazol-1-yl)pyridin-4-yl)oxy)ethoxy)benzonitrile] | 
2 | 20000 pM | 5520 |  | Cn1nccc1-c1cc(OCCOc2ccc(C#N)cc2)ccn1 [Compound 59, 4-(2-((2-(1-methyl-1H-pyrazol-5-yl)pyridin-4-yl)oxy)ethoxy)benzonitrile] | Prelamin A accumulation
3 | 2800 pM and 1400 pM and 1500 pM | 5050 |  | Cn1nccc1-c1cc(OCCOc2ccc(C#N)cc2F)ccn1 [Compound 69, 3-fluoro-4-(2-((2-(1-methyl-1H-pyrazol-5-yl)pyridin-4-yl)oxy)ethoxy)benzonitrile] | Prelamin A accumulation
4 | 27000 pM | 5990 |  | Cc1nccn1-c1cc(OCCOc2ccc(C#N)cn2)ccn1 [Compound 70, 6-(2-((2-(2-methyl-1H-imidazol-1-yl)pyridin-4-yl)oxy)ethoxy)nicotinonitrile] | Prelamin A accumulation
5 | 44000 pM and 41000 pM | 12700 |  | Cn1nccc1-c1cc(OCCOc2ccc(C#N)cn2)ccn1 [Compound 71, 6-(2-((2-(1-methyl-1H-pyrazol-5-yl)pyridin-4-yl)oxy)ethoxy)nicotinonitrile] | Prelamin A accumulation
6 |  | 6020 | 75 | Cc1nccn1-c1cccc(OC[C@@H](C)Oc2ccc(C#N)cc2F)c1 [Compound 78, (R)-3-fluoro-4-((1-(3-(2-methyl-1H-imidazol-1-yl)phenoxy)propan-2-yl)oxy)benzonitrile] | 
7 | 12000 pM |  |  | N#Cc1ccc(OCCOc2ccnc(-n3cnnn3)c2)c(F)c1 [Compound 120, 4-(2-((2-(1H-tetrazol-1-yl)pyridin-4-yl)oxy)ethoxy)-3-fluorobenzonitrile] | 
8 | 70000 pM |  |  | Cn1nccc1-c1cc(OCCOc2ccc(Br)cc2F)ccn1 [Compound 121, 4-(2-(4-bromo-2-fluorophenoxy)ethoxy)-2-(1-methyl-1H-pyrazol-5-yl)pyridine] | 
